Drawing on PubChem BioAssay AID192 (DTP/NCI, 2004), this text covers T/C for 16 molecules.

Values joined by “and” are separate entries in the source; they are usually repeats but may differ in a detail not shown here. Identical values can stand only once. Toxic doses and inconclusive results are not listed.

The experiment has as its system BDF1 mice, B16 melanoma ip, median survival T/C. The experiment in a line: NCI In Vivo Anticancer Drug Screen. Data for tumor model B16 Melanoma (intraperitoneal) in B6D2F1 (BDF1) mice. Particulars: endpoint: median survival time, higher = longer survival. The method, boiled down: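 The ratio T/C compares compound-treated mice with vehicle-treated controls, using survival or tumor size as the endpoint in a transplantable tumor model.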

[1] abbreviates: dose: 1.5 mg/kg/injection, schedule: Q01DX009 (ip), vehicle: saline.
Where [2] appears, read: dose: 3.0 mg/kg/injection, schedule: Q01DX009 (ip), vehicle: saline.
Setting [3] is: dose: 25.0 mg/kg/injection, schedule: Q01DX009 (ip), vehicle: Klucel (hydroxypropylcellulose) (HPC).
The mark [4] stands for this setting: dose: 50.0 mg/kg/injection, schedule: Q01DX009 (ip), vehicle: Klucel (hydroxypropylcellulose) (HPC).
The mark [5] stands for this setting: dose: 100.0 mg/kg/injection, schedule: Q01DX009 (ip), vehicle: Klucel (hydroxypropylcellulose) (HPC).
Where [6] appears, read: dose: 50.0 mg/kg/injection, schedule: Q01DX009 (ip), vehicle: saline with Tween-80.
Setting [7] is: dose: 25.0 mg/kg/injection, schedule: Q01DX009 (ip), vehicle: saline.
Where [8] appears, read: dose: 50.0 mg/kg/injection, schedule: Q01DX009 (ip), vehicle: saline.
Where [9] appears, read: dose: 100.0 mg/kg/injection, schedule: Q01DX009 (ip), vehicle: saline with Tween-80.

Take `O=[N+]([O-])c1cc([N+](=O)[O-])cc(S(=O)(=O)O)c1`: the T/C is 108 % of control (dose: 25.0 mg/kg/injection, schedule: Q04DX003 (ip), vehicle: saline); 97 % of control (dose: 50.0 mg/kg/injection, schedule: Q04DX003 (ip), vehicle: saline); 87 % of control (dose: 100.0 mg/kg/injection, schedule: Q04DX003 (ip), vehicle: saline).

With `CC1=C2CC(C)(C)/C=C\C(=O)/C(C)=C\C3=C[C@H](C)C[C@]3(O2)C1=O`, the T/C reads like this: under setting [1], 93 % of control; under setting [2], 100 % of control; (dose: 6.0 mg/kg/injection, schedule: Q01DX009 (ip), vehicle: saline) 100 % of control; (dose: 12.0 mg/kg/injection, schedule: Q01DX009 (ip), vehicle: saline) 106 % of control; (dose: 16.0 mg/kg/injection, schedule: Q01DX009 (ip), vehicle: saline with Tween-80) 97 % of control; (dose: 32.0 mg/kg/injection, schedule: Q01DX009 (ip), vehicle: saline with Tween-80) 92 % of control.

As to `O=C1C=C(N2CC2)c2ccccc2C1=O`, the T/C is, setting by setting: (dose: 5.0 mg/kg/injection, schedule: Q01DX009 (ip), vehicle: saline with Tween-80) 105 % of control; (dose: 10.0 mg/kg/injection, schedule: Q01DX009 (ip), vehicle: saline with Tween-80) 100 % of control.

For the molecule `Cc1nc(N)[nH]c(=O)c1Br`, the T/C is 97 % of control (dose: 100.0 mg/kg/injection, schedule: Q04DX003 (ip), vehicle: Klucel (hydroxypropylcellulose) (HPC)); 93 % of control (dose: 200.0 mg/kg/injection, schedule: Q04DX003 (ip), vehicle: Klucel (hydroxypropylcellulose) (HPC)); 89 % of control (dose: 400.0 mg/kg/injection, schedule: Q04DX003 (ip), vehicle: Klucel (hydroxypropylcellulose) (HPC)).

For `Nc1ccccc1N`, the T/C is, setting by setting: (dose: 12.5 mg/kg/injection, schedule: Q01DX009 (ip), vehicle: Klucel (hydroxypropylcellulose) (HPC)) 96 % of control; under setting [3], 98 % of control; (dose: 25.0 mg/kg/injection, schedule: Q02DX009 (ip), vehicle: saline with Tween-80) 106 % of control; under setting [4], 98 % of control; under setting [5], 102 % of control; (dose: 100.0 mg/kg/injection, schedule: Q02DX009 (ip), vehicle: saline with Tween-80) 100 % of control. Besides, the T/C (dose: 200.0 mg/kg/injection, schedule: Q02DX009 (ip), vehicle: saline with Tween-80) is 100 % of control.

With `Cc1noc2nccnc12`, the T/C (dose: 12.5 mg/kg/injection, schedule: Q01DX009 (ip), vehicle: saline with Tween-80) was 92 % of control; the T/C (dose: 25.0 mg/kg/injection, schedule: Q01DX009 (ip), vehicle: saline with Tween-80) is 95 % of control; the T/C under setting [6] was 88 % of control.

Regarding `C[C@]12C=CC(=O)C=C1CC[C@@H]1[C@@H]2C(=O)C[C@@]2(C)[C@H]1CC[C@]2(O)C(=O)CO`, the T/C is, setting by setting: (dose: 12.5 mg/kg/injection, schedule: Q01DX009 (sc), vehicle: steriod suspending solution) 102 % of control; (dose: 25.0 mg/kg/injection, schedule: Q01DX009 (sc), vehicle: steriod suspending solution) 102 % of control; (dose: 50.0 mg/kg/injection, schedule: Q01DX009 (sc), vehicle: steriod suspending solution) 89 % of control and 102 % of control and 110 % of control; (dose: 50.0 mg/kg/injection, schedule: Q01DX017 (sc), vehicle: steriod suspending solution) 104 % of control; (dose: 50.0 mg/kg/injection, schedule: Q## X009 (sc), vehicle: steriod suspending solution) 102 % of control; (dose: 100.0 mg/kg/injection, schedule: Q01DX001 (sc), vehicle: steriod suspending solution) 100 % of control. Moreover, the T/C runs as follows: (dose: 100.0 mg/kg/injection, schedule: Q01DX009 (sc), vehicle: steriod suspending solution) 109 % of control; (dose: 100.0 mg/kg/injection, schedule: Q01DX017 (sc), vehicle: steriod suspending solution) 97 % of control; (dose: 100.0 mg/kg/injection, schedule: Q04DX003 (sc), vehicle: steriod suspending solution) 109 % of control; (dose: 100.0 mg/kg/injection, schedule: Q04DX005 (sc), vehicle: steriod suspending solution) 97 % of control; (dose: 100.0 mg/kg/injection, schedule: Q## X009 (sc), vehicle: steriod suspending solution) 118 % of control; (dose: 200.0 mg/kg/injection, schedule: Q01DX001 (sc), vehicle: steriod suspending solution) 95 % of control. The T/C by setting is: (dose: 200.0 mg/kg/injection, schedule: Q01DX009 (sc), vehicle: steriod suspending solution) 123 % of control; (dose: 200.0 mg/kg/injection, schedule: Q04DX003 (sc), vehicle: steriod suspending solution) 104 % of control; (dose: 200.0 mg/kg/injection, schedule: Q04DX005 (sc), vehicle: steriod suspending solution) 106 % of control; (dose: 200.0 mg/kg/injection, schedule: Q## X009 (sc), vehicle: steriod suspending solution) 106 % of control; (dose: 400.0 mg/kg/injection, schedule: Q01DX001 (sc), vehicle: steriod suspending solution) 95 % of control; (dose: 400.0 mg/kg/injection, schedule: Q04DX003 (sc), vehicle: steriod suspending solution) 106 % of control. In addition, the T/C is, setting by setting: (dose: 400.0 mg/kg/injection, schedule: Q04DX005 (sc), vehicle: steriod suspending solution) 109 % of control; (dose: 400.0 mg/kg/injection, schedule: Q## X009 (sc), vehicle: steriod suspending solution) 106 % of control; (dose: 800.0 mg/kg/injection, schedule: Q01DX001 (sc), vehicle: steriod suspending solution) 93 % of control.

`CN1CCC=C(C(=O)N2c3ccccc3Sc3ccccc32)C1`: the T/C under setting [7] was 102 % of control and the T/C under setting [8] was 96 % of control.

`C1=NCCCN1`: the T/C is 114 % of control under setting [7]; 117 % of control under setting [8]; 113 % of control (dose: 100.0 mg/kg/injection, schedule: Q01DX009 (ip), vehicle: saline).

Take `C[NH-].C[NH-].[Cl][Pt+2][Cl]`: the T/C was 102 % of control (dose: 0.39 mg/kg/injection, schedule: Q01DX009 (ip), vehicle: saline); 104 % of control (dose: 0.78 mg/kg/injection, schedule: Q01DX009 (ip), vehicle: saline); 112 % of control (dose: 1.56 mg/kg/injection, schedule: Q01DX009 (ip), vehicle: saline); 121 % of control (dose: 3.13 mg/kg/injection, schedule: Q01DX009 (ip), vehicle: saline); 154 % of control (dose: 8.0 mg/kg/injection, schedule: Q01DX009 (ip), vehicle: saline with Tween-80).

For `O=c1cc(-c2ccccc2)nc(Nc2nc3ccc([N+](=O)[O-])cc3[nH]2)[nH]1`, the T/C is, setting by setting: under setting [3], 102 % of control; under setting [4], 90 % of control; under setting [5], 98 % of control and 103 % of control.

As for `CCCCNc1cc(Nc2ccc(Br)cc2)nc(N)n1`, the T/C is 95 % of control under setting [6] and 91 % of control under setting [9].

As for `COc1ccc(Br)cc1/C=N\NS(=O)(=O)c1ccc(C)cc1`, the T/C is, setting by setting: under setting [5], 94 % of control; under setting [9], 90 % of control; (dose: 200.0 mg/kg/injection, schedule: Q01DX009 (ip), vehicle: Klucel (hydroxypropylcellulose) (HPC)) 110 % of control; (dose: 200.0 mg/kg/injection, schedule: Q01DX009 (ip), vehicle: saline with Tween-80) 95 % of control; (dose: 400.0 mg/kg/injection, schedule: Q01DX009 (ip), vehicle: Klucel (hydroxypropylcellulose) (HPC)) 100 % of control.

On to `Oc1ccc2ccccc2c1N=Nc1ccc(F)cc1`, for which the T/C is 119 % of control under setting [9] and 108 % of control (dose: 400.0 mg/kg/injection, schedule: Q01DX009 (ip), vehicle: saline with Tween-80).

For the molecule `COc1cc(OC)c(/C=C/c2cc[n+](C)c3ccccc23)c(OC)c1`, the T/C by setting is: (dose: 0.75 mg/kg/injection, schedule: Q01DX009 (ip), vehicle: saline) 105 % of control; under setting [1], 95 % of control; under setting [2], 97 % of control.

Turning to `Cc1cccc(C2CCCC2c2ccccc2)c1` (stereo not drawn), the T/C by setting is: (dose: 75.0 mg/kg/injection, schedule: Q01DX009 (ip), vehicle: Klucel (hydroxypropylcellulose) (HPC)) 88 % of control; (dose: 150.0 mg/kg/injection, schedule: Q01DX009 (ip), vehicle: Klucel (hydroxypropylcellulose) (HPC)) 97 % of control; (dose: 300.0 mg/kg/injection, schedule: Q01DX009 (ip), vehicle: Klucel (hydroxypropylcellulose) (HPC)) 100 % of control.
